For orientation: IC50 means the concentration that inhibits the measured activity by half.

In the first assay the target is recombinant human PAI-1 (Homo sapiens, UniProt P05121). In words: PAI-1 inhibitory activity, Test Method A (tPA fluorogenic substrate, Tris buffer pH8.0, 37 C). It is filed as biochemical. Conditions: 25 μM test compound; Test Method A.
recombinant human PAI-1, sequence (P05121 24-402): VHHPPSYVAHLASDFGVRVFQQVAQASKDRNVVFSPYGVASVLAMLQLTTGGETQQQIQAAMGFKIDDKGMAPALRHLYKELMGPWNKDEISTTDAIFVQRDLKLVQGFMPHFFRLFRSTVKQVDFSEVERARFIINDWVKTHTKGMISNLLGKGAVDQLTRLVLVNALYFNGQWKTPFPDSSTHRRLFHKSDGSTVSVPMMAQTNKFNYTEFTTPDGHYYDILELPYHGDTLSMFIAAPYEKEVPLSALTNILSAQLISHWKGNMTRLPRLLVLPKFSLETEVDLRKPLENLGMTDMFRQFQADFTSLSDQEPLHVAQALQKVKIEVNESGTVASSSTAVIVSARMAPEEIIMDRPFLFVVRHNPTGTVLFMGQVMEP
On to `O=C(Nc1ccccc1)c1ccc(CN2C(=O)SC(=Cc3ccc(O)c(O)c3)C2=O)cc1` [compound 301, 5-(3,4-Dihydroxybenzylidene)-3-[4-(phenylcarbamoyl)benzyl]thiazolidine-2,4-dione], for which the “Inhibitory Ratio at 25 μM (%)” value was >99%.

As to `O=C1SC(=Cc2ccc(O)c(O)c2)C(=O)N1Cc1ccc(Nc2ccccc2)cc1` [compound 302, 5-(3,4-Dihydroxybenzylidene)-3-[4-(phenylamino)benzyl]thiazolidine-2,4-dione], the “Inhibitory Ratio at 25 μM (%)” value is listed as >99%.

For `O=C1C(=Cc2cc(O)c(O)c(O)c2)SC(=S)N1Cc1ccc(Cl)c(Cl)c1` [compound 303], the “Inhibitory Ratio at 25 μM (%)” value is reported as >99%.

In the case of `O=C1SC(=Cc2ccc(O)c(O)c2)C(=O)N1Cc1cnc(Cl)c(Cl)c1` [compound 304, 5-(3,4-Dihydroxybenzylidene)-3-[(5,6-dichloropyridin-3-yl)-methyl]thiazolidine-2,4-dione], the “Inhibitory Ratio at 25 μM (%)” value is listed as >99%.

For the molecule `O=C1SC(=Cc2ccc(O)c(O)c2)C(=O)N1Cc1cc(C(F)(F)F)ccc1C(F)(F)F` [compound 305, 5-(3,4-Dihydroxybenzylidene)-3-[2,5-bis(trifluoromethyl)benzyl]-thiazolidine-2,4-dione], the “Inhibitory Ratio at 25 μM (%)” value is listed as >99%.

As to `O=C1C(=Cc2ccc(O)c(O)c2)SC(=S)N1Cc1ccc(C=Cc2ccccc2)cc1` [compound 306, 5-(3,4-Dihydroxybenzylidene)-3-(4-styrylbenzyl)rhodanine], the “Inhibitory Ratio at 25 μM (%)” value is listed as >99%.

For `O=C1C(=Cc2ccc(O)c(O)c2)SC(=S)N1Cc1ccc(C(F)(F)F)cc1` [compound 307, 5-(3,4-Dihydroxybenzylidene)-3-[4-(trifluoromethyl)benzyl]rhodanine], the “Inhibitory Ratio at 25 μM (%)” value is >99%.

On to `O=C1SC(=Cc2ccc(Oc3ccccc3)cc2)C(=O)N1Cc1cc(O)c(O)c(O)c1` [compound 308, 5-(4-Phenoxybenzylidene)-3-(3,4,5-trihydroxybenzyl)thiazolidine-2,4-dione], for which the “Inhibitory Ratio at 25 μM (%)” value was 98%.

Consider `O=C1SC(=Cc2cccc(O)c2O)C(=O)N1Cc1ccc(Nc2ccccc2)cc1` [compound 309], for which the “Inhibitory Ratio at 25 μM (%)” value is >99%.

In the case of `O=C1SC(=Cc2cccc(Oc3ccccc3)c2)C(=O)N1Cc1cc(O)c(O)c(O)c1` [compound 310, 5-(3-Phenoxybenzylidene)-3-(3,4,5-trihydroxybenzyl)thiazolidine-2,4-dione], the “Inhibitory Ratio at 25 μM (%)” value is listed as >99%.

For `O=C(Cc1ccccc1)Nc1ccc(CN2C(=O)SC(=Cc3cccc(O)c3O)C2=O)cc1` [compound 313, 5-(2,3-Dihydroxybenzylidene)-3-[4-(phenylacetylamino)benzyl]-thiazolidine-2,4-dione], the “Inhibitory Ratio at 25 μM (%)” value is on record as 73%.

Consider `O=C(CCc1ccccc1)Nc1ccc(CN2C(=O)SC(=Cc3cccc(O)c3O)C2=O)cc1` [compound 314, 5-(2,3-Dihydroxybenzylidene)-3-[4-(3-phenylpropionylamino)benzyl]-thiazolidine-2,4-dione], for which the “Inhibitory Ratio at 25 μM (%)” value is given as >99%.

For the molecule `O=C(CCc1ccccc1)Nc1ccc(CN2C(=O)SC(=Cc3ccc(O)c(O)c3)C2=O)cc1` [compound 315], the “Inhibitory Ratio at 25 μM (%)” value is given as 39%.

For `O=C1SC(=Cc2ccc(O)c(O)c2)C(=O)N1Cc1cccc(Nc2ccccc2)c1` [compound 318, 5-(3,4-Dihydroxybenzylidene)-3-[3-(phenylamino)benzyl]thiazolidine-2,4-dione], the “Inhibitory Ratio at 25 μM (%)” value is >99%.

Take `O=C1SC(=Cc2cccc(O)c2O)C(=O)N1Cc1cccc(Nc2ccccc2)c1` [compound 319]: the “Inhibitory Ratio at 25 μM (%)” value is >99%.

As to `O=C(Cc1cccc(Oc2ccccc2)c1)Nc1cccc(CN2C(=O)SC(=Cc3ccc(O)c(O)c3)C2=O)c1` [compound 321], the “Inhibitory Ratio at 25 μM (%)” value was >99%.

`O=C1SC(=Cc2cc(C=Cc3ccccc3)ccc2O)C(=O)N1Cc1ccc(Cl)c(Cl)c1` [compound 322, 5-(2-Hydroxy-5-styrylbenzylidene)-3-(3,4-dichlorobenzyl)thiazolidine-2,4-dione]: the “Inhibitory Ratio at 25 μM (%)” value is recorded as 89%.

Take `COc1ccc(C=C2SC(=O)N(Cc3ccc(Cl)c(Cl)c3)C2=O)cc1O` [compound 323]: the “Inhibitory Ratio at 25 μM (%)” value is 21%.

Staying with this assay, now noted: 50% inhibitory concentration of PAI-1 activity, according to the aforementioned method.
Regarding `O=C1C(=Cc2cc(O)c(O)c(O)c2)SC(=S)N1Cc1ccc(Cl)c(Cl)c1` [compound 303], the IC50 turned out to be 390 nM.

As for `O=C1C(=Cc2ccc(O)c(O)c2)SC(=S)N1Cc1ccc(C(F)(F)F)cc1` [compound 307, 5-(3,4-Dihydroxybenzylidene)-3-[4-(trifluoromethyl)benzyl]rhodanine], the IC50 is 580 nM.

Still in this assay, the particulars now being: test compound 25 μM; Test Method A.
With `CC1=NN(c2cccc(C(=O)O)c2)C(=O)C1=Cc1ccc(-c2ccc(C)c(Cl)c2)o1` [compound 187], the “Inhibitory Ratio at 25 μM (%)” value was 54%.

As to `CC1=NN(c2ccc(Cl)c(C(=O)O)c2)C(=O)C1=Cc1ccc(-c2ccccc2Cl)o1` [compound 188], the “Inhibitory Ratio at 25 μM (%)” value was 35%.

With `COC(=O)c1cccc(-c2ccc(C=C3C(=O)N(c4cccc(C(=O)O)c4)N=C3C)o2)c1` [compound 189], the “Inhibitory Ratio at 25 μM (%)” value worked out at 21%.

Regarding `CC1=NN(c2ccc(Cl)c(C(=O)O)c2)C(=O)C1=Cc1ccc(-c2cccc(Cl)c2C)o1` [compound 190], the “Inhibitory Ratio at 25 μM (%)” value worked out at 81%.

For `CC1=NN(c2cccc(C(=O)O)c2)C(=O)C1=Cc1ccc(-c2cc(Cl)cc(Cl)c2)o1` [compound 191], the “Inhibitory Ratio at 25 μM (%)” value turned out to be 59%.

Regarding `CC1=NN(c2ccc(Cl)c(C(=O)O)c2)C(=O)C1=Cc1ccc(-c2cccc(F)c2)o1` [compound 192], the “Inhibitory Ratio at 25 μM (%)” value was 44%.

`CC1=NN(c2cccc(C(=O)O)c2)C(=O)C1=Cc1ccc(-c2cccc([N+](=O)[O-])c2)o1` [compound 193]: the “Inhibitory Ratio at 25 μM (%)” value is reported as 32%.

On to `COC(=O)c1cccc(N2N=C(c3ccccc3)C(=Cc3ccc(Br)o3)C2=O)c1` [compound 194], for which the “Inhibitory Ratio at 25 μM (%)” value came to 84%.

With `O=C1C(=Cc2ccc(Br)o2)C(C(F)(F)F)=NN1c1cccc([N+](=O)[O-])c1` [compound 195], the “Inhibitory Ratio at 25 μM (%)” value is listed as 30%.

Regarding `CCOC(=O)C1=NN(c2cccc(C(=O)OCC)c2)C(=O)C1=Cc1ccc2c(c1)OCO2` [compound 196], the “Inhibitory Ratio at 25 μM (%)” value was 54%.

As for `COC(=O)c1cccc(N2N=C(C(C)(C)C)C(=Cc3ccc(Cl)c(Cl)c3)C2=O)c1` [compound 197], the “Inhibitory Ratio at 25 μM (%)” value was 32%.

As to `CC(C)(C)C1=NN(c2cccc(C(=O)O)c2)C(=O)C1=Cc1ccc(Cl)c(Cl)c1` [compound 198], the “Inhibitory Ratio at 25 μM (%)” value amounted to 40%.

`O=C1C(=Cc2ccc(Br)o2)C(c2ccccc2)=NN1c1cccc([N+](=O)[O-])c1` [compound 199]: the “Inhibitory Ratio at 25 μM (%)” value is 85%.

Consider `CC(C)C1=NN(c2cccc([N+](=O)[O-])c2)C(=O)C1=Cc1ccc(Br)o1` [compound 200, 4-[(5-Bromofuran-2-yl)methylene]-1-(3-nitrophenyl)-3-isopropyl-2-pyrazolin-5-one], for which the “Inhibitory Ratio at 25 μM (%)” value was determined as 53%.

`O=C1C(=Cc2ccc(Cl)c(Cl)c2)C(c2ccccc2)=NN1c1cccc([N+](=O)[O-])c1` [compound 201]: the “Inhibitory Ratio at 25 μM (%)” value was >99%.

Consider `COC(=O)c1cccc(C=C2C(=O)N(c3cc(Cl)cc(Cl)c3)N=C2C(C)C)c1` [compound 204, 4-[3-(methoxycarbonyl)benzylidene]-1-(3,5-dichlorophenyl)-3-isopropyl-2-pyrazolin-5-one], for which the “Inhibitory Ratio at 25 μM (%)” value is reported as >99%.

Consider `COC(=O)c1cccc(N2N=C(C(C)C)C(=Cc3ccc(Br)o3)C2=O)c1` [compound 205], for which the “Inhibitory Ratio at 25 μM (%)” value was determined as 35%.

`CC(C)C1=NN(c2cc(Cl)cc(Cl)c2)C(=O)C1=Cc1ccc(Cl)c([N+](=O)[O-])c1` [compound 206]: the “Inhibitory Ratio at 25 μM (%)” value came out at 94%.

Regarding `CC(C)C1=NN(c2cc(Cl)cc(Cl)c2)C(=O)C1=Cc1ccc(Br)cc1` [compound 207], the “Inhibitory Ratio at 25 μM (%)” value is on record as 46%.

`COC(=O)c1cccc(N2N=C(C(C)C)C(=Cc3ccc4c(c3)OCO4)C2=O)c1` [compound 208]: the “Inhibitory Ratio at 25 μM (%)” value was 47%.

Consider `COC(=O)c1cccc(N2N=C(C(C)C)C(=Cc3ccc(Cl)c(Cl)c3)C2=O)c1` [compound 210], for which the “Inhibitory Ratio at 25 μM (%)” value was found to be 49%.

`CC(C)C1=NN(c2cccc(C(=O)O)c2)C(=O)C1=Cc1ccc(-c2cc(Cl)cc(Cl)c2)o1` [compound 211]: the “Inhibitory Ratio at 25 μM (%)” value turned out to be 31%.

Consider `CC(C)C1=NN(c2cc(Cl)cc(Cl)c2)C(=O)C1=Cc1cccc(C(=O)O)c1` [compound 212], for which the “Inhibitory Ratio at 25 μM (%)” value is 82%.

As to `CCOC1=NN(c2ccc([N+](=O)[O-])cc2)C(=O)C1=Cc1ccc(C)c(OC)c1` [compound 213], the “Inhibitory Ratio at 25 μM (%)” value was determined as 40%.

As to `CCOC1=NN(c2ccc([N+](=O)[O-])cc2)C(=O)C1=Cc1ccc(C(=O)OC)cc1` [compound 214], the “Inhibitory Ratio at 25 μM (%)” value is reported as 29%.

Turning to `O=C(O)c1cccc(N2N=C(c3ccccc3)C(=Cc3ccc(Br)o3)C2=O)c1` [compound 215], the “Inhibitory Ratio at 25 μM (%)” value worked out at 77%.

As for `O=C(O)c1cccc(N2N=C(c3ccccc3)C(=Cc3ccc(-c4cc(Cl)cc(Cl)c4)o3)C2=O)c1` [compound 216], the “Inhibitory Ratio at 25 μM (%)” value came to 94%.

Turning to `O=C(O)c1cccc(N2N=C(c3ccccc3)C(=Cc3ccc(-c4cc(C(F)(F)F)cc(C(F)(F)F)c4)o3)C2=O)c1` [compound 217], the “Inhibitory Ratio at 25 μM (%)” value is >99%.

Turning to `O=C(O)c1cccc(N2N=C(C(F)(F)F)C(=Cc3ccc(-c4cc(Cl)cc(Cl)c4)o3)C2=O)c1` [compound 218], the “Inhibitory Ratio at 25 μM (%)” value came to 95%.

In the case of `O=C(O)c1ccc(Cl)c(-c2ccc(C=C3C(=O)N(c4cccc(C(F)(F)F)c4)N=C3O)o2)c1` [compound 220], the “Inhibitory Ratio at 25 μM (%)” value is >99%.

Take `O=C1C(=Cc2ccc(O)c(O)c2)C(c2ccccc2)=NN1c1ccc(Cl)c(Cl)c1` [compound 221]: the “Inhibitory Ratio at 25 μM (%)” value was >99%.

With `CC(C)C1=NN(c2ccc(Cl)nc2)C(=O)C1=Cc1cc(O)c(O)cc1O` [compound 222, 4-(2,4,5-Trihydroxybenzylidene)-1-(2-chloropyridin-5-yl)-3-isopropyl-2-pyrazolin-5-one], the “Inhibitory Ratio at 25 μM (%)” value came to 79%.

As for `CCOC1=NN(c2ccc([N+](=O)[O-])cc2)C(=O)C1=Cc1cc(O)c(O)cc1O` [compound 223], the “Inhibitory Ratio at 25 μM (%)” value was 88%.

Regarding `CC1=NN(c2ccc(Cl)cc2)C(=O)C1=Cc1cc(O)c(O)cc1O` [compound 224], the “Inhibitory Ratio at 25 μM (%)” value came out at 69%.

Values taken from patent US20070276011A1, “Plasminogen Activator Inhibitor-1 Inhibitor” (priority 2003, published 2007).
